# Results from PubChem BioAssay AID1963970 (Molecular Pharmacology Branch, DTP, NCI, 2024).
# System: 931267-113-T-J1-PDC multicell spheroid viability
# Test: Anticancer human tumor 931267-113-T-J1-PDC patient-derived colon adenocarcinoma cell line growth inhibition [PI3K]
# Settings: for IC50: curve of first compound; for viability, T/C: stronger effect = lower value
# Procedure, shortened: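 Spheroid viability read-out. Co-cultures contained the tumor line plus HUVEC and human MSCs. Each agent was paired with a PI3K inhibitor (inavolisib, alpelisib, duvelisib, copanlisib) across half-log dilutions starting at clinical Cmax, or at 10 microM when Cmax was unknown.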
# [1] = second compound 0.0316 µM, first compound 0.0316 µM
# [2] = second compound 0.0316 µM, first compound 0.1 µM
# [3] = second compound 0.1 µM, first compound 0.0316 µM
# [4] = second compound 0.1 µM, first compound 0.1 µM
# [5] = second compound 0.316 µM, first compound 0.0316 µM
# [6] = second compound 0.316 µM, first compound 0.1 µM
# [7] = second compound 1 µM, first compound 0.0316 µM
# [8] = second compound 1 µM, first compound 0.1 µM
# [9] = second compound 3.16 µM, first compound 0.0316 µM
# [10] = second compound 3.16 µM, first compound 0.1 µM
# [11] = second compound 10 µM, first compound 0.0316 µM
# [12] = second compound 10 µM, first compound 0.1 µM
# [13] = second compound 0.0316 µM, first compound 0.316 µM
# [14] = second compound 0.0316 µM, first compound 1 µM
# [15] = second compound 0.0316 µM, first compound 3.16 µM
# [16] = second compound 0.0316 µM, first compound 10 µM
# [17] = second compound 0.1 µM, first compound 0.316 µM
# [18] = second compound 0.1 µM, first compound 1 µM
# [19] = second compound 0.1 µM, first compound 3.16 µM
# [20] = second compound 0.1 µM, first compound 10 µM
# [21] = second compound 0.316 µM, first compound 0.316 µM
# [22] = second compound 0.316 µM, first compound 1 µM
# [23] = second compound 0.316 µM, first compound 3.16 µM
# [24] = second compound 0.316 µM, first compound 10 µM
# [25] = second compound 1 µM, first compound 0.316 µM
# [26] = second compound 1 µM, first compound 1 µM
# [27] = second compound 1 µM, first compound 3.16 µM
# [28] = second compound 1 µM, first compound 10 µM
# [29] = second compound 3.16 µM, first compound 0.316 µM
# [30] = second compound 3.16 µM, first compound 1 µM
# [31] = second compound 3.16 µM, first compound 3.16 µM
# [32] = second compound 3.16 µM, first compound 10 µM
# [33] = second compound 10 µM, first compound 0.316 µM
# [34] = second compound 10 µM, first compound 1 µM
# [35] = second compound 10 µM, first compound 3.16 µM
# [36] = second compound 10 µM, first compound 10 µM
# 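Further: viability read 7 days after compound addition.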
structure (smiles),measurement,setting,value
CC(C)n1nc(-c2ccc3oc(N)nc3c2)c2c(N)ncnc21 + Cc1nc(NC(=O)N2CCCC2C(N)=O)sc1-c1ccnc(C(C)(C)C(F)(F)F)c1,IC50,second compound 0.0316 µM,0.0915 µM
same,IC50,second compound 0.1 µM,0.0777 µM
same,IC50,second compound 0.316 µM,0.0697 µM
same,IC50,second compound 1 µM,0.0569 µM
same,IC50,second compound 3.16 µM,0.0249 µM
same,IC50,second compound 10 µM,0.00831 µM
same,"viability, T/C","second compound 0.0316 µM, first compound 0.000316 µM",97.2%
same,"viability, T/C","second compound 0.0316 µM, first compound 0.001 µM",84.3%
same,"viability, T/C","second compound 0.0316 µM, first compound 0.00316 µM",81.5%
same,"viability, T/C","second compound 0.0316 µM, first compound 0.01 µM",101%
same,"viability, T/C",[1],78.3%
same,"viability, T/C",[2],47.6%
same,"viability, T/C","second compound 0.1 µM, first compound 0.000316 µM",97.3%
same,"viability, T/C","second compound 0.1 µM, first compound 0.001 µM",91.1%
same,"viability, T/C","second compound 0.1 µM, first compound 0.00316 µM",89.9%
same,"viability, T/C","second compound 0.1 µM, first compound 0.01 µM",92.6%
same,"viability, T/C",[3],79.7%
same,"viability, T/C",[4],41.5%
same,"viability, T/C","second compound 0.316 µM, first compound 0.000316 µM",88.8%
same,"viability, T/C","second compound 0.316 µM, first compound 0.001 µM",91.9%
same,"viability, T/C","second compound 0.316 µM, first compound 0.00316 µM",86.8%
same,"viability, T/C","second compound 0.316 µM, first compound 0.01 µM",85.5%
same,"viability, T/C",[5],68.4%
same,"viability, T/C",[6],41.5%
same,"viability, T/C","second compound 1 µM, first compound 0.000316 µM",78.9%
same,"viability, T/C","second compound 1 µM, first compound 0.001 µM",72.3%
same,"viability, T/C","second compound 1 µM, first compound 0.00316 µM",72.7%
same,"viability, T/C","second compound 1 µM, first compound 0.01 µM",66.8%
same,"viability, T/C",[7],64.1%
same,"viability, T/C",[8],38.3%
same,"viability, T/C","second compound 3.16 µM, first compound 0.000316 µM",68.8%
same,"viability, T/C","second compound 3.16 µM, first compound 0.001 µM",67.8%
same,"viability, T/C","second compound 3.16 µM, first compound 0.00316 µM",62.1%
same,"viability, T/C","second compound 3.16 µM, first compound 0.01 µM",58.4%
same,"viability, T/C",[9],48.4%
same,"viability, T/C",[10],30.7%
same,"viability, T/C","second compound 10 µM, first compound 0.000316 µM",62.3%
same,"viability, T/C","second compound 10 µM, first compound 0.001 µM",52.3%
same,"viability, T/C","second compound 10 µM, first compound 0.00316 µM",55.6%
same,"viability, T/C","second compound 10 µM, first compound 0.01 µM",45.7%
same,"viability, T/C",[11],44%
same,"viability, T/C",[12],24.1%
CC1(C)CCC(CN2CCN(c3ccc(C(=O)NS(=O)(=O)c4ccc(NCC5CCOCC5)c([N+](=O)[O-])c4)c(Oc4cnc5[nH]ccc5c4)c3)CC2)=C(c2ccc(Cl)cc2)C1 + Cc1nc(NC(=O)N2CCCC2C(N)=O)sc1-c1ccnc(C(C)(C)C(F)(F)F)c1,IC50,second compound 0.0316 µM,6.06 µM
same,IC50,second compound 0.1 µM,5.9 µM
same,IC50,second compound 0.316 µM,5.31 µM
same,IC50,second compound 1 µM,4.73 µM
same,IC50,second compound 3.16 µM,4.44 µM
same,IC50,second compound 10 µM,3.48 µM
same,"viability, T/C",[1],105%
same,"viability, T/C",[2],98.3%
same,"viability, T/C",[13],98%
same,"viability, T/C",[14],108%
same,"viability, T/C",[15],90.3%
same,"viability, T/C",[16],19%
same,"viability, T/C",[3],95.4%
same,"viability, T/C",[4],94%
same,"viability, T/C",[17],92%
same,"viability, T/C",[18],102%
same,"viability, T/C",[19],92.6%
same,"viability, T/C",[20],14%
same,"viability, T/C",[5],91.7%
same,"viability, T/C",[6],101%
same,"viability, T/C",[21],98.5%
same,"viability, T/C",[22],84.7%
same,"viability, T/C",[23],80.2%
same,"viability, T/C",[24],15.7%
same,"viability, T/C",[7],91.7%
same,"viability, T/C",[8],78.4%
same,"viability, T/C",[25],79.4%
same,"viability, T/C",[26],88.1%
same,"viability, T/C",[27],72.5%
same,"viability, T/C",[28],8.3%
same,"viability, T/C",[9],73.2%
same,"viability, T/C",[10],72.8%
same,"viability, T/C",[29],72.5%
same,"viability, T/C",[30],70.6%
same,"viability, T/C",[31],67.6%
same,"viability, T/C",[32],8.18%
same,"viability, T/C",[11],57.1%
same,"viability, T/C",[12],57.9%
same,"viability, T/C",[33],50.3%
same,"viability, T/C",[34],58.1%
same,"viability, T/C",[35],53.7%
same,"viability, T/C",[36],7.58%
C[C@@H](NC(=O)c1ncnc(N)c1Cl)c1ncc(C(=O)Nc2cc(C(F)(F)F)c(Cl)cn2)s1 + Cc1nc(NC(=O)N2CCCC2C(N)=O)sc1-c1ccnc(C(C)(C)C(F)(F)F)c1,IC50,second compound 0.0316 µM,> 10 µM
same,IC50,second compound 0.1 µM,> 10 µM
same,IC50,second compound 0.316 µM,> 10 µM
same,IC50,second compound 1 µM,9.87 µM
same,IC50,second compound 3.16 µM,5.35 µM
same,IC50,second compound 10 µM,1.39 µM
same,"viability, T/C",[1],110%
same,"viability, T/C",[2],106%
same,"viability, T/C",[13],110%
same,"viability, T/C",[14],116%
same,"viability, T/C",[15],97.5%
same,"viability, T/C",[16],82.8%
same,"viability, T/C",[3],103%
same,"viability, T/C",[4],107%
same,"viability, T/C",[17],113%
same,"viability, T/C",[18],111%
same,"viability, T/C",[19],88.7%
same,"viability, T/C",[20],72.5%
same,"viability, T/C",[5],106%
same,"viability, T/C",[6],96.4%
same,"viability, T/C",[21],106%
same,"viability, T/C",[22],95.7%
same,"viability, T/C",[23],74.6%
same,"viability, T/C",[24],57.5%
same,"viability, T/C",[7],93.7%
same,"viability, T/C",[8],93.2%
same,"viability, T/C",[25],99.2%
same,"viability, T/C",[26],81.1%
same,"viability, T/C",[27],71.2%
same,"viability, T/C",[28],49.5%
same,"viability, T/C",[9],83.6%
same,"viability, T/C",[10],91.8%
same,"viability, T/C",[29],83.3%
same,"viability, T/C",[30],79.8%
same,"viability, T/C",[31],62.6%
same,"viability, T/C",[32],35%
same,"viability, T/C",[11],72.2%
same,"viability, T/C",[12],63.3%
same,"viability, T/C",[33],63.8%
same,"viability, T/C",[34],52%
same,"viability, T/C",[35],41.9%
same,"viability, T/C",[36],16.9%
